In patent publication US20030053977A1, “Compositions comprising at least one aminated C5-C7 saccharide unit, and their use for the protection and/or repair of keratinous fibers” (priority 2001, published 2003):

Columns and labels:
[1] = DSC doublet peak area of normal blonde hair after 12 heat cycles (lyxosylamine)
Experimental: Normal brown hair was processed with Revlon Realistic Professional Extra-Strength Relaxer for 30 min. at standard room temperature and humidity. The relaxed brown hair was subjected to six heat cycles, each heat cycle comprised applying the treatment solutions to the hair, blow-drying the hair, and applying heat to the hair for 1 min. in the form of the Professional Flat Iron (Solid Gold) set at “High” (130° C. to 135° C.). The hair was shampooed with a 10% solution of sodium laureth sulfate after each heat cycle, that is, after the heat application and prior to application of the treatment solution.
Normal blonde hair was subjected to 12 heat cycles, as described in Example 2, using a 0.1 wt % solution of D-Lyxosylamine.

[2] = DSC doublet peak area of bleached hair after twelve heat cycles (galactosamine)
Experimental: In the DSC experiments (using DSC-6 with Autosampler, Perkin Elmer), the hair was cut in small fragments (1-2 mm) and sealed in […] aluminum pans that were punctured prior to heating, resulting in a 50 micron laser-drilled opening in the pan lid. The hair was heated from 25° C. to 300° C. at a heating rate of 2^0° C./min. Three runs per section were performed. The results were averaged and standard deviations determined. Normal brown hair was processed with Revlon Realistic Professional Extra-Strength Relaxer for 30 min. at standard room temperature and humidity. The relaxed brown hair was subjected to six heat cycles, each heat cycle comprised applying the treatment solutions to the hair, blow-drying the hair, and applying heat to the hair for 1 min. in the form of the Professional Flat Iron (Solid Gold) set at “High” (130° C. to 135° C.). The hair was shampooed with a 10% solution of sodium laureth sulfate after each heat cycle, that is, after the heat application and prior to application of the treatment solution. Normal brown hair was bleached with […] Blonde Dimensions Dust-Free Bleached mixed with 40 volume (12% hydrogen peroxide). The bleached hair was then subject to twelve heat cycles. The heat treatment was as described in Example 2. The heat-treated hair was tested by DSC (Perkin Elmer Pyris 1 DSC) as described in Example 1. […]

[3] = Wet tensile strength (Dia-Stron) of relaxed hair after six heat cycles
Experimental: Normal brown hair was processed with Revlon Realistic Professional Extra-Strength Relaxer for 30 min. at standard room temperature and humidity. The relaxed brown hair was subjected to six heat cycles, each heat cycle comprised applying the treatment solutions to the hair, blow-drying the hair, and applying heat to the hair for 1 min. in the form of the Professional Flat Iron (Solid Gold) set at “High” (130° C. to 135° C.). The hair was shampooed with a 10% solution of sodium laureth sulfate after each heat cycle, that is, after the heat application and prior to application of the treatment solution. The treatment solutions included: a) deionized water; and b) 1% (w/v) glucosamine hydrochloride (Glucosamine HCl). The hair was tested for wet tensile strength using a Dia-Stron. The fibers were stretched in water at a rate of 10 mm/min., with 50 fibers per test. The results were averaged, and standard deviations determined. As used herein, “Young's modulus” corresponds to the initial resistance of the hair to the applied pulling force, “Work 25%” is the work required to extend the hair fiber to 25% of its length, “Break Extension” is the hair extension observed at the breaking point expressed at percent of its original length, and “Work-Break” is the work required to break the hair.

[4] = DSC doublet peak area of bleached hair after 6 and 12 heat cycles
Experimental: In the DSC experiments (using DSC-6 with Autosampler, Perkin Elmer), the hair was cut in small fragments (1-2 mm) and sealed in […] aluminum pans that were punctured prior to heating, resulting in a 50 micron laser-drilled opening in the pan lid. The hair was heated from 25° C. to 300° C. at a heating rate of 2^0° C./min. Three runs per section were performed. The results were averaged and standard deviations determined. Normal brown hair was processed with Revlon Realistic Professional Extra-Strength Relaxer for 30 min. at standard room temperature and humidity. The relaxed brown hair was subjected to six heat cycles, each heat cycle comprised applying the treatment solutions to the hair, blow-drying the hair, and applying heat to the hair for 1 min. in the form of the Professional Flat Iron (Solid Gold) set at “High” (130° C. to 135° C.). The hair was shampooed with a 10% solution of sodium laureth sulfate after each heat cycle, that is, after the heat application and prior to application of the treatment solution. Normal brown hair was bleached using […] Blonding Gels Clear with 40 volume (12% hydrogen peroxide). The hair was subject to a total of twelve heat cycles. The heat treatment was as described in Example 2. The heat-treated hair was tested by DSC (Perkin Elmer Pyris 1 DSC) as described in Example 1. The hair was tested after Cycles 6 and 12. The treatment solutions included: a) deionized water, b) 0.001% (w/v) glucosamine hydrochloride solution, c) 0.010% (w/v) glucosamine hydrochloride solution, d) 0.100% (w/v) glucosamine hydrochloride solution, and e) 1.000% (w/v) glucosamine hydrochloride solution. Three DSC runs per treatment were performed, the results were averaged, and standard deviations determined.

[5] = DSC doublet peak area (alpha-structure) of relaxed hair after six heat cycles
Experimental: In the DSC experiments (using DSC-6 with Autosampler, Perkin Elmer), the hair was cut in small fragments (1-2 mm) and sealed in […] aluminum pans that were punctured prior to heating, resulting in a 50 micron laser-drilled opening in the pan lid. The hair was heated from 25° C. to 300° C. at a heating rate of 2^0° C./min. Three runs per section were performed. The results were averaged and standard deviations determined. Normal brown hair was processed with Revlon Realistic Professional Extra-Strength Relaxer for 30 min. at standard room temperature and humidity. The relaxed brown hair was subjected to six heat cycles, each heat cycle comprised applying the treatment solutions to the hair, blow-drying the hair, and applying heat to the hair for 1 min. in the form of the Professional Flat Iron (Solid Gold) set at “High” (130° C. to 135° C.). The hair was shampooed with a 10% solution of sodium laureth sulfate after each heat cycle, that is, after the heat application and prior to application of the treatment solution. The treatment solutions included: a) deionized water; and b) 1% (w/v) glucosamine hydrochloride (Glucosamine HCl). The hair swatches from Example 2 were studied by differential scanning calorimetry (DSC). In this example, the hair was equilibrated at standard room temperature and humidity for 24 hours prior to testing.

[6] = 1% solution, relaxed hair, six heat cycles
[7] = relaxed hair after 6 cycles at 130° C. with 1% (w/v) solution, wet tensile, n = 50 fibers

NC1OC[C@@H](O)[C@H](O)[C@@H]1O (stereo partly drawn) [D-Lyxosylamine]
protection of the α-structure of hair as compared to the control solution (deionized water) ([1]; 0.1 wt % solution, normal blonde hair, 12 heat cycles): protected the α-structure | Doublet Peak Area ([1]; normal blonde hair after 12 heat cycles with 0.1% solution): 11.49 +/− 3.56 J/g hair

Cl.N[C@H]1C(O)O[C@H](CO)[C@H](O)[C@@H]1O (some centres unmarked) [Galactosamine HCI, galactosamine hydrochloride]
doublet area as compared to the control solution (deionized water) ([2]; 1% solution, bleached hair, 12 heat cycles): significant increase | Doublet Peak Area ([2]; bleached hair after 12 heat cycles with 1% solution): 41.52 +/− 3.94 J/g hair

Cl.N[C@H]1C(O)O[C@H](CO)[C@@H](O)[C@@H]1O (some centres unmarked) [Glucosamine HCl, glucosamine hydrochloride]
tensile properties as compared to the control treatment with deionized water [3, 6]: superior tensile properties | Break Extension [3, 7]: 55.10 +/− 4.77% | Work 25% [3, 7]: 419 +/− 111 J/m^2 | Work-Break [3, 7]: 1800 +/− 477 J/m^2 | Young's Modulus [3, 7]: 613 +/− 196 MN/m^2 | Doublet Peak Area ([4]; 0.001% solution, 6 cycles): 11.11 +/− 1.74 J/g hair | Doublet Peak Area ([4]; 0.001% solution, 12 cycles): 14.74 +/− 5.95 J/g hair | doublet area as compared to the control solution (deionized water) ([4]; 0.001% to 1.000% solutions, 6 and 12 heat cycles): significant increase | Doublet Peak Area ([4]; 0.010% solution, 6 cycles): 12.32 +/− 3.74 J/g hair | Doublet Peak Area ([4]; 0.010% solution, 12 cycles): 21.66 +/− 12.88 J/g hair | Doublet Peak Area ([4]; 0.100% solution, 6 cycles): 17.32 +/− 2.23 J/g hair | Doublet Peak Area ([4]; 0.100% solution, 12 cycles): 20.92 +/− 1.73 J/g hair | Doublet Peak Area ([4]; 1.000% solution, 6 cycles): 19.40 +/− 4.14 J/g hair | Doublet Peak Area ([4]; 1.000% solution, 12 cycles): 22.98 +/− 6.57 J/g hair | doublet area as compared to the control solution (deionized water) [5, 6]: significant increase | Doublet Peak Area ([5]; relaxed hair after 6 heat cycles with 1% solution): 23.11 +/− 7.09 J/g hair
